# Patent US12128035B2, “Activating pyruvate kinase R” (Novo Nordisk Health Care AG, priority 2021, dated 2024)
# System: 2,3-DPG blood levels
# Experiment: Phase 1 SAD/MAD: blood 2,3-DPG (LC-MS/MS) in healthy volunteers
# Assay type: in vivo, human
# Conditions: for median and mean reduction in 2,3-DPG, relative to baseline: all MAD dose levels
# Procedure: In this study, SAD/MAD cohorts are randomized (3 to 1) to receive Compound 1 or placebo (P). Compound 1 was evaluated first in 4 healthy SAD cohorts and 4 healthy MAD (14-day dosing period) cohorts. Based on the safety, and PK/PD profile from HS, Compound 1 is then evaluated in 1 SCD SAD cohort and 2 SCD MAD cohorts. Specifically, based on the safety and pharmacokinetic/pharmacodynamics (PK/PD) profile in healthy volunteer studies, Compound 1 is evaluated in patients (pts) with SCD, first in a single dose (SD or SAD) cohort and then in multiple-dose (MD or MAD) cohorts (14-day and 12-week). Safety assessments include AEs, vital signs, ECGs and laboratory parameters. PK/PD blood sampling was performed on Day 1 (SAD/MAD) and Day 14 (MAD) and up to 72 h after the last dose and at the end-of-study visit. PD parameters included 2,3-DPG, ATP, and p50 in all cohorts with additional PD studies (including oxygen scan) performed only in the SCD cohorts. PD parameters included 2,3-DPG, ATP, p50, RBC deformability with controlled deoxygenation and reoxygenation (Lorrca® oxygen scan) and varying osmolality (Lorrca® osmoscan)). To maintain study blind, pt identifiers were removed when needed.
# In the SAD cohorts, the subjects' blood 2,3-DPG levels were measured periodically after dosing by a qualified LC-MS/MS method for the quantitation of 2,3-DPG in blood. Decreased 2,3-DPG blood levels were observed 6 hours following a single dose of Compound 1 at all dose levels (earlier timepoints were not collected). Maximum decreases in 2,3-DPG levels generally occurred ˜24 hours after the first dose with the reduction sustained ˜48-72 hr postdose. Table 15 reports the median percentage change in 2,3-DPG blood levels, relative to baseline, measured over time in healthy volunteers after a single dose of Compound 1 (200 mg, 400 mg, 700 mg, or 1000 mg) or placebo. Table 16 reports the mean percentage change in 2,3-DPG blood levels, relative to baseline, measured over time in healthy volunteers after a single dose of Compound 1 (200 mg, 400 mg, 700 mg, or 1000 mg). Accordingly, the median and mean reduction in the concentration of 2,3-DPG, relative to baseline, was at least about 30% at all dose levels tested 24 hours after administration of the single dose.
# In the MAD cohorts, the subjects' blood 2,3-DPG levels were measured periodically after dosing by a qualified LC-MS/MS method for the quantitation of 2,3-DPG in blood. […] Table 18B reports the mean percentage change in 2,3-DPG blood levels, relative to baseline, measured over time after the first dose on days 1 and 14 in healthy volunteers who received daily doses of Compound 1 (100 mg BID, 200 mg BID, 300 mg BID, or 400 mg QD) for 14 days. Accordingly, the median and mean reduction in the concentration of 2,3-DPG, relative to baseline, was at least about 25% at all dose levels tested 24 hours after administration of the first dose on day 1 and at least about 40% at all dose levels tested 24 hours after administration of the first dose on day 14.
# The following procedures are employed for the analysis of ATP and 2,3-DPG in human whole blood K2EDTA using a protein precipitation extraction procedure and analysis by LC-MS/MS.
# The following procedures are used for sample extraction prior to analysis via LC-MS/MS. 15.0 μL of the calibration standards, quality controls, matrix blanks, and samples are aliquoted into a 96-well plate. 50.0 μL of the internal standard spiking solution is added to all samples on the plate, with the exception of the matrix blank samples; 50.0 μL of water is added to the matrix blank samples. Subsequently, 150 μL of water is added to all samples on the plate. The plate is then covered and agitated by vortex at high speed for ten minutes, after which 750 μL of methanol is added to all samples on the plate. The plate is covered and agitated by vortex for approximately 1 minute. The plate is then centrifuged at approximately 3500 RPM at approximately 4° C. for five minutes. […]
# [1] = HV 400 mg QD, Day 14, 8 h after first daily dose
# [2] = HV 400 mg QD, Day 14, 12 h after first daily dose
# [3] = HV 400 mg QD, Day 14, 16 h after first daily dose
# [4] = HV 400 mg QD, Day 14, 24 h after first daily dose
# [5] = HV 400 mg QD, Day 14, 48 h after first daily dose
# [6] = HV 400 mg QD, Day 14, 72 h after first daily dose
# [7] = HV single 200 mg, 0 h after dose
# [8] = HV single 200 mg, 6 h after dose
# [9] = HV single 200 mg, 8 h after dose
# [10] = HV single 200 mg, 12 h after dose
# [11] = HV single 200 mg, 16 h after dose
# [12] = HV single 200 mg, 24 h after dose
# [13] = HV single 200 mg, 36 h after dose
# [14] = HV single 200 mg, 48 h after dose
# [15] = HV single 200 mg, 72 h after dose
# [16] = HV single 400 mg, 0 h after dose
# [17] = HV single 400 mg, 6 h after dose
# [18] = HV single 400 mg, 8 h after dose
# [19] = HV single 400 mg, 12 h after dose
# [20] = HV single 400 mg, 16 h after dose
# [21] = HV single 400 mg, 24 h after dose
# [22] = HV single 400 mg, 36 h after dose
# [23] = HV single 400 mg, 48 h after dose
# [24] = HV single 400 mg, 72 h after dose
# [25] = HV single 700 mg, 0 h after dose
# [26] = HV single 700 mg, 6 h after dose
# [27] = HV single 700 mg, 8 h after dose
# [28] = HV single 700 mg, 12 h after dose
# [29] = HV single 700 mg, 16 h after dose
# [30] = HV single 700 mg, 24 h after dose
# [31] = HV single 700 mg, 36 h after dose
# [32] = HV single 700 mg, 48 h after dose
# [33] = HV single 700 mg, 72 h after dose
# [34] = HV single 1000 mg, 0 h after dose
# [35] = HV single 1000 mg, 6 h after dose
# [36] = HV single 1000 mg, 8 h after dose
# [37] = HV single 1000 mg, 12 h after dose
# [38] = HV single 1000 mg, 16 h after dose
# [39] = HV single 1000 mg, 24 h after dose
# [40] = HV single 1000 mg, 36 h after dose
# [41] = HV single 1000 mg, 48 h after dose
# [42] = HV single 1000 mg, 72 h after dose
smiles,measurement,setting,value
"O=C([C@H](CO)c1ccccc1)N1CC2=C(C1)CN(S(=O)(=O)c1cnc3c(c1)OCCO3)C2 (single isomer, unassigned) [Compound 1]","Mean Percentage Change in 2,3-DPG Levels",[1],−55%
same,"Median Percentage Change in 2,3-DPG Levels",[1],−56%
same,"Mean Percentage Change in 2,3-DPG Levels",[2],−50%
same,"Median Percentage Change in 2,3-DPG Levels",[2],−49%
same,"Mean Percentage Change in 2,3-DPG Levels",[3],−51%
same,"Median Percentage Change in 2,3-DPG Levels",[3],−52%
same,"Mean Percentage Change in 2,3-DPG Levels",[4],−53%
same,"Median Percentage Change in 2,3-DPG Levels",[4],−53%
same,"Mean Percentage Change in 2,3-DPG Levels",[5],−38%
same,"Median Percentage Change in 2,3-DPG Levels",[5],−40%
same,"Mean Percentage Change in 2,3-DPG Levels",[6],−28%
same,"Median Percentage Change in 2,3-DPG Levels",[6],−25%
same,"maximum decrease in 2,3-DPG from baseline (median)","HV MAD cohorts, Day 14",55%
same,"Mean Maximum Percent Change from Baseline, 2,3-DPG","HV MAD, all doses and timepoints (N = 36)",−56.3%
same,"2,3-DPG reduction sustained postdose",HV SAD cohorts,48 to 72 h
same,"Mean Maximum Percent Change from Baseline, 2,3-DPG","HV SAD, all doses and timepoints (N = 24)",−46.8%
same,"Mean Percentage Change in 2,3-DPG Levels",[7],0%
same,"Median Percentage Change in 2,3-DPG Levels",[7],0.0%
same,"Mean Percentage Change in 2,3-DPG Levels",[8],−17%
same,"Median Percentage Change in 2,3-DPG Levels",[8],−18%
same,"Mean Percentage Change in 2,3-DPG Levels",[9],−21%
same,"Median Percentage Change in 2,3-DPG Levels",[9],−17%
same,"Mean Percentage Change in 2,3-DPG Levels",[10],−26%
same,"Median Percentage Change in 2,3-DPG Levels",[10],−25%
same,"Mean Percentage Change in 2,3-DPG Levels",[11],−28%
same,"Median Percentage Change in 2,3-DPG Levels",[11],−33%
same,"Mean Percentage Change in 2,3-DPG Levels",[12],−30%
same,"Median Percentage Change in 2,3-DPG Levels",[12],−31%
same,"Mean Percentage Change in 2,3-DPG Levels",[13],−31%
same,"Median Percentage Change in 2,3-DPG Levels",[13],−33%
same,"Mean Percentage Change in 2,3-DPG Levels",[14],−33%
same,"Median Percentage Change in 2,3-DPG Levels",[14],−29%
same,"Mean Percentage Change in 2,3-DPG Levels",[15],−14%
same,"Median Percentage Change in 2,3-DPG Levels",[15],−18%
same,"time of pharmacodynamic maximum (minimum of the 2,3-DPG concentration)",HV single 400 mg,~24 h
same,"Mean Percentage Change in 2,3-DPG Levels",[16],0%
same,"Median Percentage Change in 2,3-DPG Levels",[16],0.0%
same,"Mean Percentage Change in 2,3-DPG Levels",[17],−24%
same,"Median Percentage Change in 2,3-DPG Levels",[17],−23%
same,"Mean Percentage Change in 2,3-DPG Levels",[18],−29%
same,"Median Percentage Change in 2,3-DPG Levels",[18],−29%
same,"Mean Percentage Change in 2,3-DPG Levels",[19],−35%
same,"Median Percentage Change in 2,3-DPG Levels",[19],−40%
same,"Mean Percentage Change in 2,3-DPG Levels",[20],−38%
same,"Median Percentage Change in 2,3-DPG Levels",[20],−35%
same,"Mean Percentage Change in 2,3-DPG Levels",[21],−41%
same,"Median Percentage Change in 2,3-DPG Levels",[21],−39%
same,"Mean Percentage Change in 2,3-DPG Levels",[22],−37%
same,"Median Percentage Change in 2,3-DPG Levels",[22],−38%
same,"Mean Percentage Change in 2,3-DPG Levels",[23],−34%
same,"Median Percentage Change in 2,3-DPG Levels",[23],−31%
same,"Mean Percentage Change in 2,3-DPG Levels",[24],−30%
same,"Median Percentage Change in 2,3-DPG Levels",[24],−30%
same,"Mean Percentage Change in 2,3-DPG Levels",[25],0%
same,"Median Percentage Change in 2,3-DPG Levels",[25],0.0%
same,"Mean Percentage Change in 2,3-DPG Levels",[26],−30%
same,"Median Percentage Change in 2,3-DPG Levels",[26],−29%
same,"Mean Percentage Change in 2,3-DPG Levels",[27],−29%
same,"Median Percentage Change in 2,3-DPG Levels",[27],−28%
same,"Mean Percentage Change in 2,3-DPG Levels",[28],−41%
same,"Median Percentage Change in 2,3-DPG Levels",[28],−41%
same,"Mean Percentage Change in 2,3-DPG Levels",[29],−46%
same,"Median Percentage Change in 2,3-DPG Levels",[29],−46%
same,"Mean Percentage Change in 2,3-DPG Levels",[30],−49%
same,"Median Percentage Change in 2,3-DPG Levels",[30],−49%
same,"Mean Percentage Change in 2,3-DPG Levels",[31],−47%
same,"Median Percentage Change in 2,3-DPG Levels",[31],−46%
same,"Mean Percentage Change in 2,3-DPG Levels",[32],−48%
same,"Median Percentage Change in 2,3-DPG Levels",[32],−48%
same,"Mean Percentage Change in 2,3-DPG Levels",[33],−32%
same,"Median Percentage Change in 2,3-DPG Levels",[33],−33%
same,"Mean Percentage Change in 2,3-DPG Levels",[34],0%
same,"Median Percentage Change in 2,3-DPG Levels",[34],0.0%
same,"Mean Percentage Change in 2,3-DPG Levels",[35],−18%
same,"Median Percentage Change in 2,3-DPG Levels",[35],−21%
same,"Mean Percentage Change in 2,3-DPG Levels",[36],−31%
same,"Median Percentage Change in 2,3-DPG Levels",[36],−33%
same,"Mean Percentage Change in 2,3-DPG Levels",[37],−35%
same,"Median Percentage Change in 2,3-DPG Levels",[37],−38%
same,"Mean Percentage Change in 2,3-DPG Levels",[38],−40%
same,"Median Percentage Change in 2,3-DPG Levels",[38],−40%
same,"Mean Percentage Change in 2,3-DPG Levels",[39],−44%
same,"Median Percentage Change in 2,3-DPG Levels",[39],−48%
same,"Mean Percentage Change in 2,3-DPG Levels",[40],−46%
same,"Median Percentage Change in 2,3-DPG Levels",[40],−47%
same,"Mean Percentage Change in 2,3-DPG Levels",[41],−43%
same,"Median Percentage Change in 2,3-DPG Levels",[41],−44%
same,"Mean Percentage Change in 2,3-DPG Levels",[42],−27%
same,"Median Percentage Change in 2,3-DPG Levels",[42],−24%
same,"lag of maximum decrease in blood 2,3-DPG behind maximum plasma concentration","HV single 200, 400, 700 or 1000 mg",about 24 hours
same,"time of maximal decrease in blood 2,3-DPG post-dose","HV single dose (400 mg), FIG. 41",16 to 24 h
same,"mean maximum reduction in the concentration of 2,3-DPG",MAD study,at least 50%
same,"mean maximum reduction of 2,3-DPG, range",MAD study,46.1-63.6%
same,"mean maximum reduction in the concentration of 2,3-DPG",SAD study,at least 40%
same,"mean maximum reduction of 2,3-DPG, range",SAD study,35.4-56.1%
same,"median and mean reduction in 2,3-DPG, relative to baseline",24 hours after first dose on day 1,at least 25%
same,"median and mean reduction in 2,3-DPG, relative to baseline",24 hours after first dose on day 14,at least 40%
same,"median and mean reduction in the concentration of 2,3-DPG, relative to baseline","all SAD dose levels, 24 hours after the single dose",at least 30%
